Biological target: PIK3CA (human) (UniProt P42336)
Experiment: Inhibition of PIK3CA Kinase Activity

Sequence of PIK3CA (human) (P42336 whole entry, looked up): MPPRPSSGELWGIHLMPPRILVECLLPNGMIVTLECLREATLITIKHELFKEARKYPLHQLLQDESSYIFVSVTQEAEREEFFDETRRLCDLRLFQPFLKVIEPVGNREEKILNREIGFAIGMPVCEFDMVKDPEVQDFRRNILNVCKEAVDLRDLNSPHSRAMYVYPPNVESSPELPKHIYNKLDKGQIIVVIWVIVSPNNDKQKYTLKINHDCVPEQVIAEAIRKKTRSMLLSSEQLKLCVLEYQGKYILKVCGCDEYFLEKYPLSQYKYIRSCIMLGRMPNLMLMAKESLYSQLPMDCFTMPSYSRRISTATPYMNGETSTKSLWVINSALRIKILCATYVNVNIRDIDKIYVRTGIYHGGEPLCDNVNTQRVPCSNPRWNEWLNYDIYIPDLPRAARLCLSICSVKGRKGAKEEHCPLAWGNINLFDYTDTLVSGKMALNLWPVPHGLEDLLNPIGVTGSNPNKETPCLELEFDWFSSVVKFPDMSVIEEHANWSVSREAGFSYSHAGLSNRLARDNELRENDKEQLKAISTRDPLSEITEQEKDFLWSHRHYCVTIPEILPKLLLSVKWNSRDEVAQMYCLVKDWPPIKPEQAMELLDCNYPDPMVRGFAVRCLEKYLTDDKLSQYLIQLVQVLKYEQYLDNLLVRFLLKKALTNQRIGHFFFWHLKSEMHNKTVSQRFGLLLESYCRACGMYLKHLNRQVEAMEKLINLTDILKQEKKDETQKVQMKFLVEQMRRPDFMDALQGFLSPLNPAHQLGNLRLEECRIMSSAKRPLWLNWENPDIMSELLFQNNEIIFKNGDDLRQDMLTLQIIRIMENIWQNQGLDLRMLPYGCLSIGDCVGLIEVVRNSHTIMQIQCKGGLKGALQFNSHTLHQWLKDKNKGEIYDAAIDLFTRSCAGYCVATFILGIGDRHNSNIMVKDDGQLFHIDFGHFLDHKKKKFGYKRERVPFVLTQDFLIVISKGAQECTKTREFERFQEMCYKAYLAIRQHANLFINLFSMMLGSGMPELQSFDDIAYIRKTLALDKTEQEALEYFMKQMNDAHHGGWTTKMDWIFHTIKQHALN

Cc1nc(N)nc(-n2c(Nc3ccc(NS(=O)(=O)c4ccc(F)cc4)cc3)nc3ccccc32)n1
IC50: 1340 nM

Cc1nc(NC2CC2)nc(-n2c(Nc3ccn[nH]3)nc3ccccc32)n1
IC50: 4850 nM

Cc1nc(NCCN2CCNCC2)nc(-n2c(Nc3cc[nH]n3)nc3ccccc32)n1
IC50: 31800 nM

COc1ccc(-c2ccc3c(c2)nc(Nc2ccn[nH]2)n3-c2nc(C)nc(N)n2)cc1CO.COc1ccc(-c2ccc3nc(Nc4ccn[nH]4)n(-c4nc(C)nc(N)n4)c3c2)cc1CO
IC50: 94.3 nM

Cc1nc(NCCO)nc(-n2c(Nc3cc[nH]n3)nc3ccccc32)n1
IC50: 7260 nM

Cc1nc(N)nc(-n2c(Nc3ccc(NC(=O)c4ccc(OC(F)(F)F)cc4)cc3)nc3ccccc32)n1
IC50: 2550 nM

Cc1nc(N)nc(-n2c(Nc3cccc4[nH]ncc34)nc3ccccc32)n1
IC50: 14.6 nM

CCNC(=S)Nc1ccc(Nc2nc3ccccc3n2-c2nc(C)nc(N)n2)cc1
IC50: 470 nM

Cc1nc(NC2CCOCC2)nc(-n2c(Nc3cc[nH]n3)nc3ccccc32)n1
IC50: 17200 nM

COCCNc1nc(C)nc(-n2c(Nc3cc[nH]n3)nc3ccccc32)n1
IC50: 4550 nM

Cc1nc(N)nc(-n2c(Nc3n[nH]c4cccc(F)c34)nc3ccccc32)n1
IC50: 2740 nM

CNc1nc(C)nc(-n2c(Nc3cc[nH]n3)nc3cc(C4=CCNCC4)ccc32)n1.CNc1nc(C)nc(-n2c(Nc3cc[nH]n3)nc3ccc(C4=CCNCC4)cc32)n1
IC50: 4240 nM

Cc1nc(N)nc(-n2c(NC3CCOC3)nc3ccccc32)n1 (stereo unspecified)
IC50: 3830 nM

CNc1nc(C)nc(-n2c(Nc3ccc(NC(C)=O)cc3)nc3ccccc32)n1
IC50: 53.1 nM

Cc1nc(N)nc(-n2c(Nc3ccc(NC(=O)C4CCCC4)cc3)nc3ccccc32)n1
IC50: 1370 nM

CNc1nc(C)nc(-n2c(Nc3cc[nH]n3)nc3ccc(-c4cncnc4)cc32)n1
IC50: 58.1 nM

From the Kinase Knowledgebase extract (Sharma et al. 2016)
